Here are results for 29 sequences from the supplement of paper PMC11208160.

This series is described as follows: recombinant UMI read abundance after kanamycin selection (control-corrected) (log10(CPM+1)); higher = more efficient recombination; extreme values may be limits of the assay; sequences stand for … in AGTGCAGAGAAAATCGGCCAGTTTTCTCTGCCTGCAGTCCGCATGCCGTGGGACCCCTTGGGTTCTAACCTGTTGCCTAGATTTATGCAGCGGACTGCCTTTCTCCCAAAGTGATAAACCGG…AGGTTGGTTTCACT; site = the 11-nt donor. In a few lines: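 For the IS621 bridge recombinase, a pooled Escherichia coli screen tested donor and donor-binding-loop pairs. Cells received the pair library together with a target plasmid encoding a fixed target and T7-inducible recombinase, then went onto IPTG (0.07 mM) plus kanamycin or unselected plates in duplicate. After PCR across the donor–target junction and sequencing, recombinant UMI counts were normalized to CPM, averaged, and scaled by control-derived factors. Each value is given as log10(CPM+1).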
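Also: IS621 bridge recombinase in Escherichia coli cells against a fixed T5 target plasmid.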

In the case of “CCAAAGGCATGGACCGGTTTTCCCGGTAATCCGTATTTGGC (site CCAAAGGCTGC)”, the “recombinant UMI read abundance (log10)” value stood at 0.
With “CCAAATACATGGACCGGTTTTCCCGGTAATCCGTATTTGGC (site CCAAATACTGC)”, the “recombinant UMI read abundance (log10)” value was determined as 0.
Regarding “CCAAATACATGGACCGGTTTTCCCGGTAATCCGTATTTGGC (site CCCAATACTGC)”, the “recombinant UMI read abundance (log10)” value turned out to be 0.
Under “CCAAATACATGGACCGGTTTTCCCGGTAATCCGTATTTGGC (site CCGAATACTGC)” stands 0; under “CCAAATACATGGACCGGTTTTCCCGGTAATCCGTATTTGGC (site CCTAATACTGC)”, 0; under “CCAAATCCATGGACCGGTTTTCCCGGTAATCCGTATTTGTT (site CCAAATCCTAA)”, 0.
For “CCAAATCCATGGACCGGTTTTCCCGGTAATCCGTATTTGTT (site CGGAATCCTAA)” the value was 0.
Under “CCAACTTCATGGACCGGTTTTCCCGGTAATCCGTATTTGGA (site CCAACTTCTTC)” stands 0; under “CCAAGCACATGGACCGGTTTTCCCGGTAATCCGTATTTGCT (site CCAAGCACTAG)”, 0.32.
As to “CCAAGGACATGGACCGGTTTTCCCGGTAATCCGTATTTGTT (site CCAAGGACTAA)”, the “recombinant UMI read abundance (log10)” value amounted to 0.865.
Regarding “CCAAGGTCATGGACCGGTTTTCCCGGTAATCCGTATTTGTT (site CCAAGGTCTAA)”, the “recombinant UMI read abundance (log10)” value was 2.12.
Under “CCAAGTGCATGGACCGGTTTTCCCGGTAATCCGTATTTGAT (site CCAAGTGCTAT)” stands 1.57; under “CCAAGTGCATGGACCGGTTTTCCCGGTAATCCGTATTTGAT (site CCACGTGCTAT)”, 0.00443; under “CCAAGTGCATGGACCGGTTTTCCCGGTAATCCGTATTTGAT (site CCAGGTGCTAT)”, 0.02.
For “CCAAGTGCATGGACCGGTTTTCCCGGTAATCCGTATTTGAT (site CCATGTGCTAT)” the value was 0; for “CCAATATCATGGACCGGTTTTCCCGGTAATCCGTATTTGTC (site CCAATATCTGA)”, 1.16.
As to “CCAATATCATGGACCGGTTTTCCCGGTAATCCGTATTTGTC (site CCCATATCTGA)”, the “recombinant UMI read abundance (log10)” value was 0.0129.
Under “CCAATATCATGGACCGGTTTTCCCGGTAATCCGTATTTGTC (site CCGATATCTGA)” stands 0.
“CCAATATCATGGACCGGTTTTCCCGGTAATCCGTATTTGTC (site CCTATATCTGA)”: the “recombinant UMI read abundance (log10)” value worked out at 1.27.
Consider “CCACACACATGGACCGGTTTTCCCGGTAATCCGTATTTGTA (site CCACACACTTA)”, for which the “recombinant UMI read abundance (log10)” value turned out to be 1.15.
Under “CCACACACATGGACCGGTTTTCCCGGTAATCCGTATTTGTA (site CCCCACACTTA)” stands 0.0104; under “CCACACACATGGACCGGTTTTCCCGGTAATCCGTATTTGTA (site CCGCACACTTA)”, 0.0104.
Under “CCACACACATGGACCGGTTTTCCCGGTAATCCGTATTTGTA (site CCTCACACTTA)” stands 0.0109; under “CCACATTCATGGACCGGTTTTCCCGGTAATCCGTATTTGAT (site CCACATTCTAT)”, 0; under “CCACCACCATGGACCGGTTTTCCCGGTAATCCGTATTTGTA (site CCACCACCTTA)”, 0.00663.
For “CCACGAACATGGACCGGTTTTCCCGGTAATCCGTATTTGCA (site CCACGAACTTG)” the value was 0; for “CCACGCGCATGGACCGGTTTTCCCGGTAATCCGTATTTGAG (site CCACGCGCTCT)”, 0.759.
For “CCAGAATCATGGACCGGTTTTCCCGGTAATCCGTATTTGTG (site CCAGAATCTCA)”, the “recombinant UMI read abundance (log10)” value was 2.13.
Under “CCAGCAGCATGGACCGGTTTTCCCGGTAATCCGTATTTGCT (site CAAGCAGCTAG)” stands 0.
